Data taken from ChEMBL document CHEMBL5532744, “2-Aminopyridines as Potent and Selective Nav1.8 Inhibitors Exhibiting Efficacy in a Nonhuman Primate Pain Model” (ACS Med Chem Lett, 2024).
Converted amounts (≈) assume the structure as drawn. Each block holds one molecule with its values, some of them ahead of it.

Experiments:
[1] = Unbound clearance in rat at 0.05 mg/kg, iv administered as cassette dose; type: ADME, organism-based; details: in vivo
[2] = Half-life in rat plasma at 0.05 mg/kg, iv administered as cassette dose; type: ADME, organism-based
[3] = Solubility of the compound at pH 7; type: physicochemical; details: buffer
[4] = biological target: Sodium channel protein type 10 subunit alpha (Homo sapiens, UniProt Q9Y5Y9); assay: Inhibition of recombinant human Nav1.8 expressed in HEK293 cells by whole cell patch clamp method; type: cell-based
[5] = biological target: Sodium channel protein type 8 subunit alpha (Homo sapiens, UniProt Q9UQD0); assay: Inhibition of Nav1.6 (unknown origin)
[6] = biological target: Sodium channel protein type 10 subunit alpha (Rattus norvegicus, UniProt Q62968); assay: Inhibition of rat neuronal Nav1.8 by patch clamp electrophysiology
[7] = biological target: Sodium channel protein type 9 subunit alpha (Homo sapiens, UniProt Q15858); assay: Inhibition of Nav1.7 (unknown origin)
[8] = biological target: Sodium channel protein type 5 subunit alpha (Homo sapiens, UniProt Q14524); assay: Inhibition of Nav1.5 (unknown origin)
[9] = biological target: Voltage-dependent L-type calcium channel subunit alpha-1C (Homo sapiens, UniProt Q13936); assay: Inhibition of Cav1.2 (unknown origin)
[10] = Bioavailability in rat at 10 mg/kg, po or 2 mg/kg, iv; type: ADME, organism-based; details: in vivo
[11] = Clearance in dog at 1 mg/kg, iv; type: ADME, organism-based, Canis lupus familiaris; details: in vivo
[12] = Unbound volume of distribution in dog at 2 mg/kg, po; type: ADME, organism-based, Canis lupus familiaris; details: in vivo
[13] = Unbound drug concentration in rhesus monkey plasma at 18 mg/kg, po; type: ADME, organism-based, Macaca mulatta; details: in vivo
[14] = Apparent permeability of compound; type: ADME; details: not told
[15] = Half life in dog at 2 mg/kg, po or 1 mg/kg, iv; type: ADME, organism-based, Canis lupus familiaris; details: in vivo
[16] = Bioavailability in rhesus monkey at 2 mg/kg, po or 1 mg/kg, iv; type: ADME, organism-based, Macaca mulatta; details: in vivo
[17] = Unbound drug concentration in rhesus monkey plasma at 6 mg/kg, po; type: ADME, organism-based, Macaca mulatta; details: in vivo
[18] = Unbound volume of distribution in rhesus monkey at 2 mg/kg, po; type: ADME, organism-based, Macaca mulatta; details: in vivo
[19] = Unbound volume of distribution in rat at 10 mg/kg, po; type: ADME, organism-based; details: in vivo
[20] = Unbound clearance in rat at 10 mg/kg, po; type: ADME, organism-based; details: in vivo
[21] = Volume of distribution in dog at 1 mg/kg, iv; type: ADME, organism-based, Canis lupus familiaris; details: in vivo
[22] = Unbound clearance in rhesus monkey at 2 mg/kg, po; type: ADME, organism-based, Macaca mulatta; details: in vivo
[23] = Bioavailability in dog at 2 mg/kg, po or 1 mg/kg, iv; type: ADME, organism-based, Canis lupus familiaris; details: in vivo
[24] = Drug concentration in rhesus monkey plasma at 6 mg/kg, po; type: ADME, organism-based, Macaca mulatta; details: in vivo
[25] = Unbound clearance in dog at 2 mg/kg, po; type: ADME, organism-based, Canis lupus familiaris; details: in vivo
[26] = Tmax in rat at 10 mg/kg, po or 2 mg/kg, iv; type: ADME, organism-based; details: in vivo
[27] = Volume of distribution in rat at 2 mg/kg, iv; type: ADME, organism-based; details: in vivo
[28] = Tmax in rhesus monkey at 2 mg/kg, po or 1 mg/kg, iv; type: ADME, organism-based, Macaca mulatta; details: in vivo
[29] = biological target: Sodium channel protein type 2 subunit alpha (Homo sapiens, UniProt Q99250); assay: Inhibition of Nav1.2 (unknown origin)
[30] = Half life in rhesus monkey at 2 mg/kg, po or 1 mg/kg, iv; type: ADME, organism-based, Macaca mulatta; details: in vivo
[31] = Unbound drug concentration in rhesus monkey plasma at 2 mg/kg, po; type: ADME, organism-based, Macaca mulatta; details: in vivo
[32] = Volume of distribution in rhesus monkey at 1 mg/kg, iv; type: ADME, organism-based, Macaca mulatta; details: in vivo
[33] = Half life in rat at 10 mg/kg, po or 2 mg/kg, iv; type: ADME, organism-based; details: in vivo
[34] = Clearance in rat at 2 mg/kg, iv; type: ADME, organism-based; details: in vivo
[35] = Clearance in rhesus monkey at 1 mg/kg, iv; type: ADME, organism-based, Macaca mulatta; details: in vivo
[36] = biological target: Voltage-gated inwardly rectifying potassium channel KCNH2 (Homo sapiens, UniProt Q12809); assay: Inhibition of hERG; type: toxicity
[37] = Tmax in dog at 2 mg/kg, po or 1 mg/kg, iv; type: ADME, organism-based, Canis lupus familiaris; details: in vivo
[38] = Drug concentration in rhesus monkey plasma at 2 mg/kg, po; type: ADME, organism-based, Macaca mulatta; details: in vivo
[39] = Drug concentration in rhesus monkey plasma at 18 mg/kg, po; type: ADME, organism-based, Macaca mulatta; details: in vivo

Sequence of Sodium channel protein type 5 subunit alpha (Q14524 whole entry): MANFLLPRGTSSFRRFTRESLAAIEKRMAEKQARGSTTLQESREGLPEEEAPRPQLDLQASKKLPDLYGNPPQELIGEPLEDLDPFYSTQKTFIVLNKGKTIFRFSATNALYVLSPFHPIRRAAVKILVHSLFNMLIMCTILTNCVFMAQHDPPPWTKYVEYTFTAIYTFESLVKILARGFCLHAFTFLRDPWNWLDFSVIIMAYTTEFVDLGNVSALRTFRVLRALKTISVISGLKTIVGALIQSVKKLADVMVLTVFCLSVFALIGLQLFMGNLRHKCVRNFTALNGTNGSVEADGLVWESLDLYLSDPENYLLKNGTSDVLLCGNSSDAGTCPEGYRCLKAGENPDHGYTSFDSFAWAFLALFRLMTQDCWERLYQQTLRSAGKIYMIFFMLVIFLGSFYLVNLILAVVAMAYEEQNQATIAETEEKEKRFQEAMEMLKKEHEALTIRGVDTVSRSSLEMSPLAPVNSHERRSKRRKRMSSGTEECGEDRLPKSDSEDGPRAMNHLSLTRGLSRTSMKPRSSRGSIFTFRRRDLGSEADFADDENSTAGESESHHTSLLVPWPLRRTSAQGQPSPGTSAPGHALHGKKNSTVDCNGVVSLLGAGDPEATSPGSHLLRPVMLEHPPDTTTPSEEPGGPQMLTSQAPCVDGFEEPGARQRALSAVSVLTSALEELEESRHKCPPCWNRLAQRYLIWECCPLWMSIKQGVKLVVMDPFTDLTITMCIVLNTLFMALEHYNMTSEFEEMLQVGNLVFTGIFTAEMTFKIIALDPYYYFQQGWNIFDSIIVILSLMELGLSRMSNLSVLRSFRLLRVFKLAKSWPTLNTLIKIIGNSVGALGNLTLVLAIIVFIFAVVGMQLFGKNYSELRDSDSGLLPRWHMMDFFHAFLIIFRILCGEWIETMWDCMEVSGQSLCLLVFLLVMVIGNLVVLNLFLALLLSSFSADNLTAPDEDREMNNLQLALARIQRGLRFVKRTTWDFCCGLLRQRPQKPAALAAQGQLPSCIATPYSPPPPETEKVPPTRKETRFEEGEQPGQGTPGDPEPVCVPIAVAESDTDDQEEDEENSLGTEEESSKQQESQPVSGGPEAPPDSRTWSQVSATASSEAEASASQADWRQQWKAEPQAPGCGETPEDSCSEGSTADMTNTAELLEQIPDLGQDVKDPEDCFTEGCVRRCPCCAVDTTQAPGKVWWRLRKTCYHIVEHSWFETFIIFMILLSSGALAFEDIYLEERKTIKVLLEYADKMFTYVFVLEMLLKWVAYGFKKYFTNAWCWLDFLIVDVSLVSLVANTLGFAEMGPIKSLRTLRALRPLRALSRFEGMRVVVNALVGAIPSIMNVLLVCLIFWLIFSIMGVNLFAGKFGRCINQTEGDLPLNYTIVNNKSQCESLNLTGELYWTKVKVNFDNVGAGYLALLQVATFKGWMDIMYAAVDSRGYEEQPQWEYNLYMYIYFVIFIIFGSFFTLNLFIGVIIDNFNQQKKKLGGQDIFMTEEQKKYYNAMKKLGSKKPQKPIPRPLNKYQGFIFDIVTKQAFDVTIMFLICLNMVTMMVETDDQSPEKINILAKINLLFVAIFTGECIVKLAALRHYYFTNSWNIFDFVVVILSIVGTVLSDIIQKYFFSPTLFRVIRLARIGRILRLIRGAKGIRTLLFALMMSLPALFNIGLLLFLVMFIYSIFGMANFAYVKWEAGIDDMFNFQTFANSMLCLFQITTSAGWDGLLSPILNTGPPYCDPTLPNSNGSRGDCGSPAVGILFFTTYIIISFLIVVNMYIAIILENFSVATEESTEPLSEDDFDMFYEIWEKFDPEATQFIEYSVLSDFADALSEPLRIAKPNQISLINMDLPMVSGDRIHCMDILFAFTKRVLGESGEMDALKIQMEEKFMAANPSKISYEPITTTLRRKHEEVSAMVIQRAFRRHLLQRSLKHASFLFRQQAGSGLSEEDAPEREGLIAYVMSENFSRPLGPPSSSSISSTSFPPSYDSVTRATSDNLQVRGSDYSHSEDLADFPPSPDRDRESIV
Sequence of Sodium channel protein type 8 subunit alpha (Q9UQD0 whole entry): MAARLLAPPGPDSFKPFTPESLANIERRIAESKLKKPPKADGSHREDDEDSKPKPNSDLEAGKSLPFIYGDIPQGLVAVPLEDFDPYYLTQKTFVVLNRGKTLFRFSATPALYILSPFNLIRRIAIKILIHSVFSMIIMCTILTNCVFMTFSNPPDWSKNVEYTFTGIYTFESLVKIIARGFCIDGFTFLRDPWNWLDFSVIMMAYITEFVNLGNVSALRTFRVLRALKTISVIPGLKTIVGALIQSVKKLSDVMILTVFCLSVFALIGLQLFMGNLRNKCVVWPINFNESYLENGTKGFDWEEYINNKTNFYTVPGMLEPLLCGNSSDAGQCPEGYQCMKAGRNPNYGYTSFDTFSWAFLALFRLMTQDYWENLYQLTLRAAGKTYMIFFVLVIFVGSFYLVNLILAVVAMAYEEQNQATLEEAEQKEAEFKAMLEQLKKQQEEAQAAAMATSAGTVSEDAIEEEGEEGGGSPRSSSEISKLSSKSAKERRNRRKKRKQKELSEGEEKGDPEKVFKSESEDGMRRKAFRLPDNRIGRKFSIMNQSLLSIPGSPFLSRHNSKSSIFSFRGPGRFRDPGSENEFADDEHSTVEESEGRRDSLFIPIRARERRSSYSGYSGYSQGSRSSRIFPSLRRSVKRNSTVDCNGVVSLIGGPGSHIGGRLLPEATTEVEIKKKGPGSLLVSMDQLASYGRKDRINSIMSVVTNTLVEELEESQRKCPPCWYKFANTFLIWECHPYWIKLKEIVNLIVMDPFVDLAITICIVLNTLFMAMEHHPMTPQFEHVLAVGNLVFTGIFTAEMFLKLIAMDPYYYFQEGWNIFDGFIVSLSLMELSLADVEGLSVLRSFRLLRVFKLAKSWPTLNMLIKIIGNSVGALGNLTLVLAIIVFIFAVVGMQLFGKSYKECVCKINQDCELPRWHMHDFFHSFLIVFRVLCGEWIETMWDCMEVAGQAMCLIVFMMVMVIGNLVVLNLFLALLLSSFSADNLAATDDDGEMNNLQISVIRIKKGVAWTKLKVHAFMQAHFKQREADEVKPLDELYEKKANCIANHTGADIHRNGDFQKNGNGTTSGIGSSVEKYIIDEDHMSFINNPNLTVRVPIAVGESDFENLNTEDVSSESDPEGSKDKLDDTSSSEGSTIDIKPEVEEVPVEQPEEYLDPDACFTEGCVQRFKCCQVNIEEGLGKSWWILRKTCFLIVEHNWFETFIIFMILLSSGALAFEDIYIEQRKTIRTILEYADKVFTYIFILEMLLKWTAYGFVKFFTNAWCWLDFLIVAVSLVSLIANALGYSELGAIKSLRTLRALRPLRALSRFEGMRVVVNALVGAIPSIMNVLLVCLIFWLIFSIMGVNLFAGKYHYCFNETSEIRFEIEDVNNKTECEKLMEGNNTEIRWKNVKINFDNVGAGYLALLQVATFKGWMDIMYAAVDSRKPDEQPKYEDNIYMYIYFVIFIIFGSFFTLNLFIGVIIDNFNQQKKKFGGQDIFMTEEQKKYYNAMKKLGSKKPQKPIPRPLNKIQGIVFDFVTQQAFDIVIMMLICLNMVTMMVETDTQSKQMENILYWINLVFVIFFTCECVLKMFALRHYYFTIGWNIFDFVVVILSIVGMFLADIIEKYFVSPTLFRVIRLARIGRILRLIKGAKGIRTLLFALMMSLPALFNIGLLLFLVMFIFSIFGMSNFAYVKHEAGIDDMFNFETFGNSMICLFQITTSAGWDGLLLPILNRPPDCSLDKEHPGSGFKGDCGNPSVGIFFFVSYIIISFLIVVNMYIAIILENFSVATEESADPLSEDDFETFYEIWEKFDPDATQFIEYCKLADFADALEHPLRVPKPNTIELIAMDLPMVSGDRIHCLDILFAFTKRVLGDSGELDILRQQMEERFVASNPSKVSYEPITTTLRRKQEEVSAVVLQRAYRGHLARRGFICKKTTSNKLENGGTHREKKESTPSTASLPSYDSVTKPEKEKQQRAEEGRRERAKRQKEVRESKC
Sequence of Voltage-gated inwardly rectifying potassium channel KCNH2 (Q12809 whole entry): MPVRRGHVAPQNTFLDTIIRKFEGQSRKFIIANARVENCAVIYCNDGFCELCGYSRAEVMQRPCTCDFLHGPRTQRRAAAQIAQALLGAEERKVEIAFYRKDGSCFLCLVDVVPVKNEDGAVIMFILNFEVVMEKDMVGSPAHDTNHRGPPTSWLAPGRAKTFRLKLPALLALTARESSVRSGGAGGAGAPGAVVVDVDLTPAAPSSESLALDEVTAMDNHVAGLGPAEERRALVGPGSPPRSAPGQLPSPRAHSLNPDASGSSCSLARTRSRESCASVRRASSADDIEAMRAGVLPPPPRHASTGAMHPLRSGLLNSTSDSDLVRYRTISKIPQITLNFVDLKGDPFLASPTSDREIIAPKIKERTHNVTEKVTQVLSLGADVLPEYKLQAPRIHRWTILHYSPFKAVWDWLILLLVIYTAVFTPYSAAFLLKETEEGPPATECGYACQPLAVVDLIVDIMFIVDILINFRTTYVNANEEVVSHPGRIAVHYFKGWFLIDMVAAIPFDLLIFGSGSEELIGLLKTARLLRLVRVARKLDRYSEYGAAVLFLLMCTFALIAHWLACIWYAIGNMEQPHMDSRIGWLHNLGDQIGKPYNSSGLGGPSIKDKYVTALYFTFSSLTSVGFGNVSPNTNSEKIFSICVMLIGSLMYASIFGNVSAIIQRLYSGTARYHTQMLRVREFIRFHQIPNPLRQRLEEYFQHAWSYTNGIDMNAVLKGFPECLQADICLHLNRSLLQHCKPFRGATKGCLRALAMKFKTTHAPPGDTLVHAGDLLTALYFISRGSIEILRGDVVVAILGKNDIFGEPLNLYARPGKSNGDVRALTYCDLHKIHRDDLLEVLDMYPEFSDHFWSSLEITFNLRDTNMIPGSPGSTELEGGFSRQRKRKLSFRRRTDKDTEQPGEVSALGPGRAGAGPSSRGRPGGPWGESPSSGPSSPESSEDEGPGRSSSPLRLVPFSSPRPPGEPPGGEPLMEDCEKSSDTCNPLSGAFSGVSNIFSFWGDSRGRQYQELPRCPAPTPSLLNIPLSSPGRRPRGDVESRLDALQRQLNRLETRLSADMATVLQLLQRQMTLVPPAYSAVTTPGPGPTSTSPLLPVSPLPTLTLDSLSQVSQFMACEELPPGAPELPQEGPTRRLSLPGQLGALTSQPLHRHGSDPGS

SMILES: NS(=O)(=O)c1cccc(NC(=O)c2cc(C(F)(F)F)cnc2N2CCCC(F)(F)C2)c1
CL free [1]: 210 mL/min/kg | half-life [2]: 1.1 h | solubility [3]: 160 µM (≈ 74.3 µg/mL) | EC50 [4]: 240 nM

SMILES: COc1ccccc1NC(=O)c1nc2ccccc2nc1N1CCCCC1
EC50 [5]: > 30000 nM | IC50 [6]: 21000 nM | IC50 [7]: > 30000 nM | EC50 [8]: > 30000 nM

SMILES: NS(=O)(=O)c1cccc(NC(=O)c2cccnc2N2CCCCC2)c1
EC50 [4]: 22000 nM

SMILES: Cc1cc(C(=O)Nc2cccc(S(N)(=O)=O)c2)c(N2CCCCC2)nc1C
CL free [1]: 2900 mL/min/kg | half-life [2]: 0.57 h | solubility [3]: 11 µM (≈ 4.27 µg/mL) | EC50 [4]: 320 nM

SMILES: Cc1cnc(N2CCCCC2)c(C(=O)Nc2cccc(S(N)(=O)=O)c2)c1
solubility [3]: 14 µM (≈ 5.24 µg/mL) | EC50 [4]: 14000 nM

SMILES: NS(=O)(=O)c1cccc(NC(=O)c2cc3ccccc3nc2N2CCOCC2)c1
EC50 [4]: 2000 nM

SMILES: CC(C)(C)c1cc(C(=O)Nc2cccc(S(N)(=O)=O)c2)n(Cc2ccccc2)n1
EC50 [5]: > 30000 nM | IC50 [6]: 80 nM | IC50 [7]: > 30000 nM | EC50 [8]: > 30000 nM

SMILES: Cc1ccc(C(=O)Nc2cccc(S(N)(=O)=O)c2)c(N2CCCCC2)n1
CL free [1]: 1100 mL/min/kg | half-life [2]: 0.55 h | solubility [3]: 58 µM (≈ 21.7 µg/mL) | EC50 [4]: 860 nM

SMILES: CN1CCN(c2nc3ccccc3cc2C(=O)Nc2cccc(S(N)(=O)=O)c2)CC1
EC50 [4]: 20000 nM

SMILES: CN1CCN(c2nc3ccccc3nc2C(=O)Nc2cccc(S(N)(=O)=O)c2)CC1
EC50 [4]: > 30000 nM

SMILES: NS(=O)(=O)c1cccc(NC(=O)c2cc(C(F)(F)F)cnc2N2CCCC2)c1
solubility [3]: 160 µM (≈ 66.3 µg/mL) | EC50 [4]: 2000 nM

SMILES: NS(=O)(=O)c1cccc(NC(=O)c2cc(C(F)(F)F)cnc2N2CCCC(F)(F)CC2)c1
CL free [1]: 600 mL/min/kg | half-life [2]: 1.1 h | solubility [3]: 110 µM (≈ 52.6 µg/mL)

SMILES: NS(=O)(=O)c1cccc(NC(=O)c2ccc(C(F)(F)F)nc2N2CCCCC2)c1
CL free [1]: 1300 mL/min/kg | half-life [2]: 0.89 h | solubility [3]: 91 µM (≈ 39 µg/mL) | EC50 [4]: 290 nM

The next lines start with results.

CL free [1]: 370 mL/min/kg | half-life [2]: 1.5 h | solubility [3]: 120 µM (≈ 51.4 µg/mL) | EC50 [4]: 220 nM
SMILES: NS(=O)(=O)c1cccc(NC(=O)c2cc(C(F)(F)F)cnc2N2CCCCC2)c1

CL free [1]: 250 mL/min/kg | half-life [2]: 2.8 h | solubility [3]: 53 µM (≈ 24.1 µg/mL) | EC50 [4]: 32 nM
SMILES: NS(=O)(=O)c1cccc(NC(=O)c2cc(C(F)(F)F)cnc2N2CCC3(CC2)CC3)c1

EC50 [4]: 110 nM
SMILES: NS(=O)(=O)c1cccc(NC(=O)c2nc3ccccc3nc2N2CCCCC2)c1

bioavailability [10]: 82% | clearance [11]: 0.96 mL/min/kg | Vdu [12]: 30 L/kg | Cp(f) [13]: 948 nM | Papp [14]: 28 ×10⁻⁶ cm/s | half-life [15]: 8.8 h | bioavailability [16]: 77% | Cp(f) [17]: 312 nM | CL free [1]: 100 mL/min/kg | Vdu [18]: 33 L/kg | Vdu [19]: 19 L/kg | CL free [20]: 100 mL/min/kg | half-life [2]: 3.3 h | Vd [21]: 0.73 L/kg | CL free [22]: 62 mL/min/kg | bioavailability [23]: 45% | concentration [24]: 6110 nM | solubility [3]: 150 µM (≈ 69.7 µg/mL) | EC50 [5]: > 30000 nM | CL free [25]: 40 mL/min/kg | Tmax [26]: 2.5 h | Vd [27]: 1.3 L/kg | Tmax [28]: 2.5 h | EC50 [29]: > 30000 nM | half-life [30]: 6.6 h | Cp(f) [31]: 111 nM | Vd [32]: 1.68 L/kg | half-life [33]: 2.2 h | clearance [34]: 7.1 mL/min/kg | clearance [35]: 3.15 mL/min/kg | Tmax [37]: 1.5 h | EC50 [4]: 42 nM | concentration [38]: 2180 nM | concentration [39]: 18600 nM
SMILES: NS(=O)(=O)c1cccc(NC(=O)c2cc(C(F)(F)F)cnc2N2CCC(F)(F)CC2)c1
IC50 [9]: 27000 nM | IC50 [36]: > 30000 nM | EC50 [8]: > 30000 nM

CL free [1]: 1800 mL/min/kg | half-life [2]: 0.72 h | solubility [3]: 68 µM (≈ 30.9 µg/mL) | EC50 [4]: 34 nM
SMILES: NS(=O)(=O)c1cccc(NC(=O)c2cc(C(F)(F)F)cnc2N2CCCC3(CC3)C2)c1

CL free [1]: 1800 mL/min/kg | half-life [2]: 0.62 h | solubility [3]: 120 µM (≈ 53.1 µg/mL) | EC50 [4]: 12 nM
SMILES: NS(=O)(=O)c1cccc(NC(=O)c2cc(C(F)(F)F)cnc2N2CCCCCC2)c1
